Measured values: publication PMC7993833, “EDP-938, a novel nucleoprotein inhibitor of respiratory syncytial virus, demonstrates potent antiviral activities in vitro and in a non-human primate model” (PLoS Pathogens, 2021)
Entries after “also recorded” stand apart in the source; their conditions may differ. Where two headings read alike, the source gives them in different places.

Assays:
[1] = tested on: recombinant RSV A2-line19F, N protein mutants
RSV-A Long [2] = assay: RT-qPCR assay, RSV-A Long in primary cotton rat lung cells; type: cell-based; conditions: human respiratory syncytial virus, 120 h, RSV-A Long MOI 0.1, 5 days
RSV-A Long [3] = assay: Time-of-addition study, CPE endpoint; type: cell-based, respiratory syncytial virus; conditions: for EC50: human respiratory syncytial virus, read-out: EC50 for cytoprotection
Method: In order to help determine which step of the viral life cycle EDP-938 blocks multiple in vitro time-of-addition studies were performed. In the first study, EDP-938 was administered to cells infected with RSV-A Long at a MOI of 0.1 at 2 hours pre-infection (-2) or 2, 6, or 24 hours post-infection (hpi), and viral CPE evaluated 5 days later. […] A second time-of-addition study explored the ability of EDP-938 to protect not just a population experiencing a spreading infection, but individual cells already infected with RSV. Using a MOI of 3, which infects approximately 95% of all cells, virus was cold-adsorbed to the cells for 1 hour to synchronize infection before transfer to 37°C to induce fusion (marking the 0 hpi time point). Compound was added at times indicated and a 24 hpi RT-qPCR endpoint was employed to constrain viral replication cycle to a single complete cycle.
As above, but 8,000 HEp-2 cpw seeded 1-day pre-infection. 2h pre-infection compound or media added. Plates incubated 2h. Viral infection at 0.1 MOI, incubated 1h. Viral inoculum removed, cells washed, and media replaced with compound for -2h sample. Compound added at 2h, 6h, and 24h post-infection to appropriate plates. 5dpi cell viability calculated as described above.

[4] = tested on: RSV-A and RSV-B laboratory strains; assay: CPE assay, RSV laboratory strains across primate cell lines; type: cell-based; conditions: human respiratory syncytial virus, in Primates, read-out: EC50 values, inhibition of CPE (range over strains and cells)
Method: The activity of EDP-938 against both RSV-A and RSV-B was evaluated in vitro against multiple laboratory strains commonly used for antiviral screens in HEp-2 cells, human adenocarcinomic alveolar basal epithelial cells (A549), monkey kidney-derived cells (Vero), and Baby Hamster Kidney cells (BHK). Serial dilutions of the compound were added to cells infected with RSV-A at a MOI of 0.1 or RSV-B at an MOI of 0.5 and treated for 5 or 6 days, respectively.
HEp-2, Vero, and BHK were seeded at 8,000 cells per well (cpw) in growth medium (Dulbecco’s Modified Eagle Medium (DMEM) with 1% GlutaMAX, 1% Penicillin/Streptomycin (P/S), 1% Non-Essential Amino Acids (NEAA), 10% Fetal Bovine Serum (FBS)) or (Minimum Essential Medium (MEM) with 10% FBS, 1% NEAA, 1% P/S) or (Eagle’s Minimum Essential Medium with L-Glutamine, with 10% FBS, 1% P/S) respectively. A549 seeded at 3,000 cpw in F-12K Kaighn’s Modification nutrient mixture with 10% FBS, 1% NEAA, 1% P/S. Cells seeded at time of infection in 96-well plates, final well volume 100μL. Compounds suspended in DMSO, serially diluted and added to wells at 0.5% final DMSO concentration. […] Cytopathic effect (CPE) determined using ATPlite (Perkin Elmer) measured with Envision luminometer. […] All EC50s were calculated using the XLFit four-parameter logistic model 200 in Microsoft Excel.

[5] = tested on: RSV mRNA transcription and genome replication; assay: RSV minigenome system; type: cell-based, respiratory syncytial virus
HEp-2 cells = assay: Cytotoxicity (ATPlite) in HEp-2 cells; type: cell-based, human; conditions: at up to 50 μM, 3 days
Method: HEp-2, A549, and CHO cells were seeded at 3,000 cpw in their respective growth medium. CHO growth medium used was RPMI medium 1640 with 10% FBS, 1% P/S, 1% GlutaMAX. HEK-293 cells seeded at 10,000 cpw in DMEM growth medium. Undifferentiated HBECs were seeded in collagen-coated 96-well plates at 7,500 cpw in appropriate growth medium. Compound added and incubated for 3 days (4 days for HBECs) as described above. Plates read with ATPlite and CC50 calculated as EC50s as described above. SI = CC50/EC50 within a cell line.

RSV-A M37 = assay: RT-qPCR assay, RSV-A M37 in HEp-2 cells; type: cell-based; conditions: human respiratory syncytial virus
Method: HEp-2, Vero, and BHK were seeded at 8,000 cells per well (cpw) in growth medium (Dulbecco’s Modified Eagle Medium (DMEM) with 1% GlutaMAX, 1% Penicillin/Streptomycin (P/S), 1% Non-Essential Amino Acids (NEAA), 10% Fetal Bovine Serum (FBS)) or (Minimum Essential Medium (MEM) with 10% FBS, 1% NEAA, 1% P/S) or (Eagle’s Minimum Essential Medium with L-Glutamine, with 10% FBS, 1% P/S) respectively. A549 seeded at 3,000 cpw in F-12K Kaighn’s Modification nutrient mixture with 10% FBS, 1% NEAA, 1% P/S. Cells seeded at time of infection in 96-well plates, final well volume 100μL. Compounds suspended in DMSO, serially diluted and added to wells at 0.5% final DMSO concentration. Viral stocks stabilized with 25% sucrose, previously titered using plaque assay, were added at desired MOI. Sucrose added to cells-only control wells to match percent added with virus. Unless otherwise noted, RSV-A strains were tested at 0.1 MOI and incubated for 5 days in a 37°C, 5% CO2 humidified incubator, and RSV-B at 0.5 MOI for 6 days. Cytopathic effect (CPE) determined using ATPlite (Perkin Elmer) measured with Envision luminometer. For RT-qPCR, RNA was extracted from whole well using Ambion RNAqueous-96 Automated Kit, and RT-qPCR run using Applied Biosystems TaqMan RNA-to-CT 1-Step Kit. […] All EC50s were calculated using the XLFit four-parameter logistic model 200 in Microsoft Excel.

RSV-A Long [6] = assay: In vitro combination study (CPE, Loewe additivity, CalcuSyn); type: cell-based, respiratory syncytial virus
Method: The combination effect of EDP-938 with other RSV inhibitors of different mechanisms/targets was investigated in vitro. RSV-A Long infected HEp-2 cells were treated with various concentrations of EDP-938 either alone or in combination with the fusion inhibitor GS-5806, non-nucleoside L polymerase inhibitor AZ-27, nucleoside inhibitor ALS-8112 [38], ribavirin, or palivizumab. The combination of two compounds always led to a greater inhibition than a single agent alone.
To determine whether the effect of the combination was synergistic, additive or antagonistic, the data were analyzed by the Loewe additivity model using Calcusyn software, which gave a Combination Index (CI) value at various effective concentrations of the compounds. […] As an experimental control, adding EDP-938 to itself was additive. For details see S4 Table.
As described above with 8,000 HEp-2 cpw, 0.1 MOI RSV-A Long, 5-day endpoint, and CPE readout. Compounds added in serial 1.3-fold 6-point dilutions across both X- and Y-axes of plate. Plates run in quadruplicate with one uninfected plate for cytotoxicity. Combination indexes calculated using Loewe additivity model using CalcuSyn software from Biosoft.

SMILES: O=C1Nc2ccccc2C(c2ccccc2)=N[C@@H]1Nc1nnc(-c2ncc(C(F)(F)F)cc2N2CCOCC2)o1 [EDP-938]
- EC50 Fold Change vs. WT ([1]; recombinant RSV N K107N): 1.2 fold
- EC50 Fold Change vs. WT ([1]; recombinant RSV N K136R): 2.7 fold
- EC50 Fold Change vs. WT ([1]; recombinant RSV N L139I): 7.2 fold
- EC50 Fold Change vs. WT ([1]; recombinant RSV N M109I): 1.6 fold
- EC50 Fold Change vs. WT ([1]; recombinant RSV N M109K): 26.9 fold
- EC50 Fold Change vs. WT ([1]; recombinant RSV N M109T): 5.4 fold
- EC50 Fold Change vs. WT ([1]; recombinant RSV N N105D): 1.3 fold
- EC50 Fold Change vs. WT ([1]; recombinant RSV N S134T): 2.2 fold
- EC50 Fold Change vs. WT ([1]; recombinant RSV N V90A): 1.0 fold
- EC50 Fold Change vs. WT ([1]; recombinant RSV Wild-type (WT)): 1.0 fold
- EC50 (RSV-A Long [2]): 10300 nM
- EC50 (RSV-A Long [3]; 120 h, compound addition at -2 h, HEp-2, RSV-A Long MOI 0.1, CPE 5 days): 49 nM
- EC50 (RSV-A Long [3]; compound addition at 2 h post-infection): 55 nM
- EC50 (RSV-A Long [3]; compound addition at 6 h post-infection): 76 nM
- EC50 (RSV-A Long [3]; compound addition at 24 h post-infection): 66 nM
- cytoprotective activity maintained (RSV-A Long [3]; when given up to 24 hpi, RSV-A Long MOI 0.1): about 80%
- EC50 [4]: 28 to 72 nM
- effect on mRNA transcription or genome replication [5]: had no effect
- cytotoxicity (HEp-2 cells): no significant cytotoxicity
- EC50 (RSV-A M37): 54 ± 5 nM
- EC90 (RSV-A M37): 85 ± 21 nM
- combination effect (Combination Index) (RSV-A Long [6]; EDP-938 added to itself, CI 0.9–1.1 additivity, <0.9 synergy, >1.1 antagonism): additive; also recorded: additivity
- combination effect (Combination Index) (RSV-A Long [6]; EDP-938 combined with ALS-8112, AZ-27, GS-5806 or palivizumab): moderate levels of synergy
- combination effect (Combination Index) (RSV-A Long [6]; EDP-938 combined with ribavirin): additivity
